Results as given in patent US10435401B2, “Pesticidally active tetracyclic derivatives with sulphur containing substituents” (Syngenta Participations AG, priority 2014, dated 2019).

Columns and labels:
Format in all cases: in vivo
[1] = test system: Myzus persicae (Green Peach Aphid); assay: Myzus persicae intrinsic activity; settings: 120 h, test rate of 12 ppm, compound in sucrose solution under Parafilm, 5 days after infestation
Text: Example B7: Myzus persicae (Green Peach Aphid): Intrinsic Activity
Test compounds from 10′000 ppm DMSO stock solutions were applied by pipette into 24-well microtiter plates and mixed with sucrose solution. The plates were closed with a stretched Parafilm. A plastic stencil with 24 holes was placed onto the plate and infested pea seedlings were placed directly on the Parafilm. The infested plate was closed with a gel blotting paper and another plastic stencil and then turned upside down. The samples were assessed for mortality 5 days after infestation.

[2] = test system: Tetranychus urticae (Two-Spotted Spider Mite); assay: Tetranychus urticae feeding/contact activity; settings: foliar, 192 h, application rate of 200 ppm, mite population of mixed ages (mobile stages) on sprayed bean leaf discs, 8 days after infestation
Experimental: Example B11: Tetranychus urticae (Two-Spotted Spider Mite):Feeding/Contact Activity
Bean leaf discs on agar in 24-well microtiter plates were sprayed with aqueous test solutions prepared from 10′000 ppm DMSO stock solutions. After drying the leaf discs were infested with a mite population of mixed ages. The samples were assessed for mortality on mixed population (mobile stages) 8 days after infestation.

[3] = test system: Diabrotica balteata (Corn Root Worm); assay: Diabrotica balteata feeding/contact activity; settings: 96 h, application rate of 200 ppm, L2 larvae on sprayed maize sprouts, 4 days after infestation
Experimental: Example B2: Diabrotica balteata (Corn Root Worm): Feeding/Contact Activity
Maize sprouts, placed on an agar layer in 24-well microtiter plates were treated with aqueous test solutions prepared from 10′000 ppm DMSO stock solutions by spraying. After drying, the plates were infested with L2 larvae (6 to 10 per well). The samples were assessed for mortality and growth inhibition in comparison to untreated samples 4 days after infestation.

[4] = test system: Plutella xylostella (Diamond Back Moth); assay: Plutella xylostella feeding/contact activity; settings: 120 h, application rate of 200 ppm, L2 larvae on treated artificial diet, 5 days after infestation, read-out: effect in at least one of the two categories (mortality or growth inhibition)
Experimental: Example B8: Plutella xylostella (Diamond Back Moth): Feeding/Contact Activity
24-well microtiter plates with artificial diet were treated with aqueous test solutions prepared from 10′000 ppm DMSO stock solutions by pipetting. After drying, the plates were infested with L2 larvae (10 to 15 per well). The samples were assessed for mortality and growth inhibition in comparison to untreated samples 5 days after infestation.

[5] = test system: Myzus persicae (Green Peach Aphid); assay: Myzus persicae feeding/contact activity; settings: foliar, 144 h, application rate of 200 ppm, aphid population of mixed ages on sprayed sunflower leaf discs, 6 days after infestation
Experimental: Example B5: Myzus persicae (Green Peach Aphid): Feeding/Contact Activity
(§1) Sunflower leaf discs were placed on agar in a 24-well microtiter plate and sprayed with aqueous test solutions prepared from 10′000 ppm DMSO stock solutions. After drying, the leaf discs were infested with an aphid population of mixed ages. The samples were assessed for mortality 6 days after infestation.

[6] = test system: Euschistus heros (Neotropical Brown Stink Bug); assay: Euschistus heros feeding/contact activity; settings: 120 h, application rate of 200 ppm, N-2 nymphs on sprayed soybean leaf, 5 days after infestation, read-out: effect in at least one of the two categories (mortality or growth inhibition)
Experimental: Example B3: Euschistus heros (Neotropical Brown Stink Bug): Feeding/Contact Activity
Soybean leaf on agar in 24-well microtiter plates were sprayed with aqueous test solutions prepared from 10′000 ppm DMSO stock solutions. After drying the leaf were infested with N-2 nymphs. The samples were assessed for growth inhibition in comparison to untreated samples 5 days after infestation.

[7] = test system: Myzus persicae (Green Peach Aphid); assay: Myzus persicae systemic activity; settings: 144 h, test rate of 24 ppm, roots of infested pea seedlings in test solution, 6 days
Experimental: Example B6: Myzus persicae (Green Peach Aphid): Systemic Activity
Roots of pea seedlings infested with an aphid population of mixed ages were placed directly in the aqueous test solutions prepared from 10′000 ppm DMSO stock solutions. The samples were assessed for mortality 6 days after placing seedlings in test solutions.

[8] = test system: Spodoptera littoralis (Egyptian Cotton Leaf Worm); assay: Spodoptera littoralis systemic activity; settings: 144 h, test rate of 12.5 ppm, compound in agar taken up by lettuce roots, 6 days after infestation, read-out: effect in at least one of the three categories (mortality, anti-feedancy, or growth inhibition)
Experimental: Example B10: Spodoptera littoralis (Egyptian Cotton Leaf Worm): Systemic Activity
Test compounds were applied by pipette from 10′000 ppm DMSO stock solutions into 24-well plates and mixed with agar. […] […] […] Spodoptera eggs were pipetted through a plastic stencil on a humid gel blotting paper and the plate closed with it. The samples were assessed for mortality, anti-feedant effect and growth inhibition in comparison to untreated samples 6 days after infestation.

[9] = test system: Spodoptera littoralis (Egyptian Cotton Leaf Worm); assay: Spodoptera littoralis feeding/contact activity; settings: foliar, 72 h, application rate of 200 ppm, L1 larvae on sprayed cotton leaf discs, 3 days after infestation, read-out: control (at least one of mortality, anti-feedant effect, growth inhibition)
Experimental: Example B9: Spodoptera littoralis (Egyptian Cotton Leaf Worm): Feeding/Contact Activity
Cotton leaf discs were placed on agar in 24-well microtiter plates and sprayed with aqueous test solutions prepared from 10′000 ppm DMSO stock solutions. After drying the leaf discs were infested with five L1 larvae. The samples were assessed for mortality, anti-feedant effect, and growth inhibition in comparison to untreated samples 3 days after infestation. Control of Spodoptera littoralis by a test sample is when at least one of mortality, anti-feedant effect, and growth inhibition is higher than the untreated sample.

[10] = test system: Aedes aegypti (Yellow Fever Mosquito); assay: whole plant or invertebrate; settings: 48 h, test rate of 5 ppm, L2 larvae in 96-well plates, 2 days incubation, read-out: effect in at least one of the two categories (mortality or growth inhibition)
Experimental: Example B12: Aedes aegypti (Yellow Fever Mosquito): Feeding Contact Activity
10 to 15 Aedes larvae (L2) together with a nutrition mixture were placed in 96-well microtiter plates. Test compounds were pipetted into the wells. After an incubation period of 2 days insects were assessed for mortality and growth inhibition.

[11] = test system: Bemisia tabaci (Cotton White Fly); assay: Bemisia tabaci feeding/contact activity; settings: foliar, 144 h, application rate of 200 ppm, adult white flies on sprayed cotton leaf discs, 6 days after incubation
Experimental: Example B1: Bemisia tabaci (Cotton White Fly): Feeding/Contact Activity
Cotton leaf discs were placed on agar in 24-well microtiter plates and sprayed with aqueous test solutions prepared from 10′000 ppm DMSO stock solutions. After drying the leaf discs were infested with adult white flies. The samples were checked for mortality 6 days after incubation.

[12] = test system: Frankliniella occidentalis (Western Flower Thrips); assay: Frankliniella occidentalis feeding/contact activity; settings: foliar, 168 h, application rate of 200 ppm, population of mixed ages on sprayed sunflower leaf discs, 7 days after infestation
Experimental: Example B4: Frankliniella occidentalis (Western Flower Thrips): Feeding/Contact Activity
as §1, with “in” for “in a”, “plates” for “plate”, “[…]” for “10′000 ppm”, “drying” for “drying,”, “a Frankliniella” for “an aphid”, “7” for “6”

CCS(=O)(=O)c1cc(C(F)(F)F)cnc1-c1nc2cc(C3CC3)cnc2n1C [Compound P1, 6-cyclopropyl-2-[3-ethylsulfonyl-5-(trifluoromethyl)-2-pyridyl]-3-methyl-imidazo[4,5-b]pyridine]
≥ 80%: mortality at 12 ppm [1]

CCS(=O)(=O)c1cc(C(F)(F)F)cnc1-c1nc2cc(C3CC3C#N)cnc2n1C (stereo not drawn) [Compound P4, 2-[2-[3-ethylsulfonyl-5-(trifluoromethyl)-2-pyridyl]-3-methyl-imidazo[4,5-b]pyridin-6-yl]cyclopropanecarbonitrile]
≥ 80%: mortality at 200 ppm [2]

CCS(=O)(=O)c1cc(C(F)(F)F)cnc1-c1nc2cc(C3CC3)cnc2n1C [Compound P6]
≥ 80%: mortality at 200 ppm [3] | percent effect (mortality or growth inhibition) at 200 ppm [4] | mortality at 200 ppm [5] | percent effect (mortality or growth inhibition) at 200 ppm [6] | mortality at 24 ppm [7] | percent control (mortality, anti-feedancy or growth inhibition) at 12.5 ppm [8] | percent control (mortality, anti-feedant effect or growth inhibition) at 200 ppm [9]

CCS(=O)(=O)c1cc(C(F)(F)F)cnc1-c1nc2cc(C3(C#N)CCC3)cnc2n1C [Compound P3, 1-[2-[3-ethylsulfonyl-5-(trifluoromethyl)-2-pyridyl]-3-methyl-imidazo[4,5-b]pyridin-6-yl]cyclobutanecarbonitrile]
≥ 80%: mortality at 200 ppm [3]

CCS(=O)(=O)c1cc(C(F)(F)F)cnc1-c1nc2cc(C3(C#N)CC3)cnc2n1C [Compound P2, 1-[2-[3-ethylsulfonyl-5-(trifluoromethyl)-2-pyridyl]-3-methyl-imidazo[4,5-b]pyridin-6-yl]cyclopropanecarbonitrile]
≥ 80%: mortality at 12 ppm [1] | mortality at 200 ppm [3] | percent effect (mortality or growth inhibition) at 5 ppm [10] | percent effect (mortality or growth inhibition) at 200 ppm [4] | mortality at 200 ppm [11] | mortality at 200 ppm [5] | mortality at 24 ppm [7] | percent control (mortality, anti-feedancy or growth inhibition) at 12.5 ppm [8] | mortality at 200 ppm [12] | percent control (mortality, anti-feedant effect or growth inhibition) at 200 ppm [9]

CCS(=O)(=O)c1cc(C(F)(F)F)cnc1-c1nc2cc(C3CC3(C)C#N)cnc2n1C (stereo not drawn) [Compound P5, 2-[2-[3-ethylsulfonyl-5-(trifluoromethyl)-2-pyridyl]-3-methyl-imidazo[4,5-b]pyridin-6-yl]-1-methyl-cyclopropanecarbonitrile]
≥ 80%: percent control (mortality, anti-feedant effect or growth inhibition) at 200 ppm [9]
